From patent US10023570B2 (Array BioPharma, Inc., priority 2015, dated 2018) come the findings set out here.

This assay deals with human KDR protein in HEK-293 cells (Homo sapiens (Human), UniProt P35968). The assay is described as follows: KDR Cell Assay (phospho-KDR in HEK-293 cells expressing inducible KDR). The assay is classed as cell-based. As to conditions: pKDR Cell HEK 10% FBS IC50, HEK-293 cells expressing inducible KDR, VEGF stimulated. An outline of the steps:
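HEK-293 cells with inducible human KDR were treated with compound for 1 h in DMEM (0.25% DMSO final), then lysed. Phospho-KDR was quantified by Meso Scale immunoassay, expressed as percent of control, and IC50 taken where a 4-parameter logistic fit crossed 50 POC.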

Structures are written as SMILES.

By IC50 is commonly meant the concentration at which inhibition is half-maximal. A high value points to a need for much substance.

human KDR protein in HEK-293 cells, sequence (P35968 20-1356): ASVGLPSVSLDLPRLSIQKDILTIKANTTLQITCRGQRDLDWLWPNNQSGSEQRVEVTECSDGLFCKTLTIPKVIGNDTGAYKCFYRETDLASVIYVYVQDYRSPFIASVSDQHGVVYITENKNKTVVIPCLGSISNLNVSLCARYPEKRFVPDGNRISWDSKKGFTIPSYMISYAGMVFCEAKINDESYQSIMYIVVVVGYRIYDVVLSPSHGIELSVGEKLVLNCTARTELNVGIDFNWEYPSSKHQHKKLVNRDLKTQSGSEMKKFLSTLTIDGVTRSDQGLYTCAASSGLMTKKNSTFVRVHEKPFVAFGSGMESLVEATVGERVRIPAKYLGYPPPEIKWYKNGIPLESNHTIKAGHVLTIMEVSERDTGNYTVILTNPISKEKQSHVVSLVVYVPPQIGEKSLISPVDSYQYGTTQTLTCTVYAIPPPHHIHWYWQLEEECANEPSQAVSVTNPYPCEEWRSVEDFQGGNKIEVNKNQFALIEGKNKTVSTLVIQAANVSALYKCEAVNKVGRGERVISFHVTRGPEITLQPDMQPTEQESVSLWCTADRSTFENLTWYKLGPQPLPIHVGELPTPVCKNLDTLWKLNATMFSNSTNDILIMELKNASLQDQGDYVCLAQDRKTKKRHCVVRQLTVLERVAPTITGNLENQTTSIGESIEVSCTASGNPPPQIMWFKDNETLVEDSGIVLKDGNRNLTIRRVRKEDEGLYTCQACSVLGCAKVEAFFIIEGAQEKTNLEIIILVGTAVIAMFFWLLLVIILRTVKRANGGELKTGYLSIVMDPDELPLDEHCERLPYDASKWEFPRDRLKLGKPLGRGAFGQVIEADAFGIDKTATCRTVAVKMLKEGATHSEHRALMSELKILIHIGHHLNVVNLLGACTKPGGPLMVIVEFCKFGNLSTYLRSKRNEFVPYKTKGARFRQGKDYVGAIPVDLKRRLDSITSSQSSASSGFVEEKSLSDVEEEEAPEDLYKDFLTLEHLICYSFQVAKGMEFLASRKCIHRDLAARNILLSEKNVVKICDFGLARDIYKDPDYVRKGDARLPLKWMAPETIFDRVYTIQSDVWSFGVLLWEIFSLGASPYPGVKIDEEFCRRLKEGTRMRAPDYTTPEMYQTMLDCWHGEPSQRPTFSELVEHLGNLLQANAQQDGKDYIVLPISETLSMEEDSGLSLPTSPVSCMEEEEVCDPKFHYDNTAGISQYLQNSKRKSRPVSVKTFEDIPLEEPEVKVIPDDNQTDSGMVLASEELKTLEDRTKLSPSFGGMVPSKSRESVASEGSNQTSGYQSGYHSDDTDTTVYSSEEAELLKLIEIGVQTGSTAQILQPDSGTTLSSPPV

As to `COc1ccc(CN2CCN(c3ccc(-c4cc(-c5cnn(C)c5)cn5ncc(C#N)c45)cn3)CC2)cc1` [Example 432, 4-(6-(4-(4-methoxybenzyl)piperazin-1-yl)pyridin-3-yl)-6-(1-methyl-1H-pyrazol-4-yl)pyrazolo[1,5-a]pyridine-3-carbonitrile], the IC50 was found to be 263 nM. For `Cn1cc(-c2cc(-c3ccc(N4CCN(Cc5ccncc5F)CC4)nc3)c3c(C#N)cnn3c2)cn1` [Example 434, 4-(6-(4-((3-fluoropyridin-4-yl)methyl)piperazin-1-yl)pyridin-3-yl)-6-(1-methyl-1H-pyrazol-4-yl)pyrazolo[1,5-a]pyridine-3-carbonitrile] the value was 1700 nM. To `Cc1c(CN2CCN(c3ccc(-c4cc(-c5cnn(C)c5)cn5ncc(C#N)c45)cn3)CC2)cnn1C` [Example 435, 4-(6-(4-((1,5-dimethyl-1H-pyrazol-4-yl)methyl)piperazin-1-yl)pyridin-3-yl)-6-(1-methyl-1H-pyrazol-4-yl)pyrazolo[1,5-a]pyridine-3-carbonitrile] belongs 1330 nM; to `Cc1cc(CN2CCN(c3ccc(-c4cc(-c5cnn(C)c5)cn5ncc(C#N)c45)cn3)CC2)no1` [Example 436, 6-(1-methyl-1H-pyrazol-4-yl)-4-(6-(4-((5-methylisoxazol-3-yl)methyl)piperazin-1-yl)pyridin-3-yl)pyrazolo[1,5-a]pyridine-3-carbonitrile], 536 nM; to `Cn1cc(-c2cc(-c3ccc(N4CCN(Cc5nccn5C)CC4)nc3)c3c(C#N)cnn3c2)cn1` [Example 437, 4-(6-(4-((1-methyl-1H-imidazol-2-yl)methyl)piperazin-1-yl)pyridin-3-yl)-6-(1-methyl-1H-pyrazol-4-yl)pyrazolo[1,5-a]pyridine-3-carbonitrile], 1970 nM. To `Cc1cccnc1CN1CCN(c2ccc(-c3cc(-c4cnn(C)c4)cn4ncc(C#N)c34)cn2)CC1` [Example 438, 6-(1-methyl-1H-pyrazol-4-yl)-4-(6-(4-((3-methylpyridin-2-yl)methyl)piperazin-1-yl)pyridine-3-yl)pyrazolo[1,5-a]pyridine-3-carbonitrile] belongs 1990 nM; to `Cn1cc(-c2cc(-c3ccc(N4CCN(Cc5ccn(C)n5)CC4)nc3)c3c(C#N)cnn3c2)cn1` [Example 439, 4-(6-(4-((1-methyl-1H-pyrazol-3-yl)methyl)piperazin-l-yl)pyridin-3-yl)-6-(1-methyl-1H-pyrazol-4-yl)pyrazolo[1,5-a]pyridine-3-carbonitrile], 1240 nM. Take `Cc1nn(C)cc1CN1CCN(c2ccc(-c3cc(-c4cnn(C)c4)cn4ncc(C#N)c34)cn2)CC1` [Example 440, 4-(6-(4-((1,3-dimethyl-1H-pyrazol-4-yl)methyl)piperazin-1-yl)pyridine-3-yl)-6-(1-methyl-1H-pyrazol-4-yl)pyrazolo[1,5-a]pyridine-3-carbonitrile]: the IC50 came to 1690 nM. Regarding `Cn1cc(-c2cc(-c3ccc(N4CCN(Cc5c(F)cccc5F)CC4)nc3)c3c(C#N)cnn3c2)cn1` [Example 441, 4-(6-(4-(2,6-difluorobenzyl)piperazin-1-yl)pyridine-3-yl)-6-(1-methyl-1H-pyrazol-4-yl)pyrazolo[1,5-a]pyridine-3-carbonitrile], the IC50 came out at 576 nM. To `COc1cncc(CN2CCN(c3ccc(-c4cc(-c5cnn(C)c5)cn5ncc(C#N)c45)cn3)CC2)c1` [Example 442, 4-(6-(4-((5-methoxypyridin-3-yl)methyl)piperazin-1-yl)pyridine-3-yl)-6-(1-methyl-1H-pyrazol-4-yl)pyrazolo[1,5-a]pyridine-3-carbonitrile] belongs 1670 nM. For `Cc1ccnc(CN2CCN(c3ccc(-c4cc(-c5cnn(C)c5)cn5ncc(C#N)c45)cn3)CC2)c1` [Example 443, 6-(1-methyl-1H-pyrazol-4-yl)-4-(6-(4-((4-methylpyridin-2-yl)methyl)piperazin-1-yl)pyridine-3-yl)pyrazolo[1,5-a]pyridine-3-carbonitrile] the value was 653 nM; for `Cc1cnc(CN2CCN(c3ccc(-c4cc(-c5cnn(C)c5)cn5ncc(C#N)c45)cn3)CC2)cn1` [Example 444, 6-(1-methyl-1H-pyrazol-4-yl)-4-(6-(4-((5-methylpyrazin-2-yl)methyl)piperazin-1-yl)pyridin-3-yl)pyrazolo[1,5-a]pyridine-3-carbonitrile], 1290 nM. For `CC(C)n1cc(CN2CCN(c3ccc(-c4cc(-c5cnn(C)c5)cn5ncc(C#N)c45)cn3)CC2)cn1` [Example 445, 4-(6-(4-((1-isopropyl-1H-pyrazol-4-yl)methyl)piperazin-1-yl)pyridin-3-yl)-6-(1-methyl-1H-pyrazol-4-yl)pyrazolo[1,5-a]pyridine-3-carbonitrile] the value was 1660 nM; for `CCn1cc(CN2CCN(c3ccc(-c4cc(-c5cnn(C)c5)cn5ncc(C#N)c45)cn3)CC2)cn1` [Example 446, 4-(6-(4-((1-ethyl-1H-pyrazol-4-yl)methyl)piperazin-1-yl)pyridin-3-yl)-6-(1-methyl-1H-pyrazol-4-yl)pyrazolo[1,5-a]pyridine-3-carbonitrile], 1470 nM.

In turn, `Cn1cc(-c2cc(-c3ccc(N4CCN(Cc5cc(F)cc(F)c5)CC4)nc3)c3c(C#N)cnn3c2)cn1` [Example 447, 4-(6-(4-(3,5-difluorobenzyl)piperazin-1-yl)pyridin-3-yl)-6-(1-methyl-1H-pyrazol-4-yl)pyrazolo[1,5-a]pyridine-3-carbonitrile] returned an IC50 of 668 nM.

Regarding `Cn1cc(CN2CCN(c3ccc(-c4cc(-c5cnn(C)c5)cn5ncc(C#N)c45)cn3)CC2)cn1` [Example 448, 6-(1-methyl-1H-pyrazol-4-yl)-4-(6-(4-((1-methyl-1H-pyrazol-4-yl)methyl)piperazin-1-yl)pyridin-3-yl)pyrazolo[1,5-a]pyridine-3-carbonitrile], inhibition was half-maximal at 1720 nM (IC50). To `Cn1cnc(CN2CCN(c3ccc(-c4cc(-c5cnn(C)c5)cn5ncc(C#N)c45)cn3)CC2)c1` [Example 449, 4-(6-(4-((1-methyl-1H-imidazol-4-yl)methyl)piperazin-1-yl)pyridin-3-yl)-6-(1-methyl-1H-pyrazol-4-yl)pyrazolo[1,5-a]pyridine-3-carbonitrile] belongs 1340 nM; to `COc1cccc(CN2CCN(c3ccc(-c4cc(-c5cnn(C)c5)cn5ncc(C#N)c45)cn3)CC2)c1` [Example 450, 4-(6-(4-(3-methoxybenzyl)piperazin-1-yl)pyridin-3-yl)-6-(1-methyl-1H-pyrazol-4-yl)pyrazolo[1,5-a]pyridine-3-carbonitrile], 467 nM. Consider `Cn1cc(-c2cc(-c3ccc(N4CCN(Cc5cnccn5)CC4)nc3)c3c(C#N)cnn3c2)cn1` [Example 453], for which 1680 nM corresponded to half-maximal inhibition (IC50).

`Cn1cc(-c2cc(-c3ccc(N4CCN(Cc5ccccc5Cl)CC4)nc3)c3c(C#N)cnn3c2)cn1` [Example 454, 4-(6-(4-(2-chlorobenzyl)piperazin-1-yl)pyridin-3-yl)-6-(1-methyl-1H-pyrazol-4-yl)pyrazolo[1,5-a]pyridine-3-carbonitrile] gave a half-inhibitory concentration (IC50) of 698 nM. For `Cn1cc(-c2cc(-c3ccc(N4CCN(Cc5cccc(Cl)c5)CC4)nc3)c3c(C#N)cnn3c2)cn1` [Example 455, 4-(6-(4-(3-chlorobenzyl)piperazin-1-yl)pyridin-3-yl)-6-(1-yl)methyl-1H-pyrazol-4-pyrazolo[1,5-a]pyridine-3-carbonitrile] the value was 464 nM; for `Cn1cc(-c2cc(-c3ccc(N4CCN(CC5CC(F)(F)C5)CC4)nc3)c3c(C#N)cnn3c2)cn1` [Example 459, 4-(6-(4-((3,3-difluorocyclobutyl)methyl)piperazin-l-yl)pyridin-3-yl)-6-(1-methyl-1H-pyrazol-4-yl)pyrazolo[1,5-a]pyridine-3-carbonitrile], at least 5000 nM; for `CN(C)c1ccccc1CN1CCN(c2ccc(-c3cc(-c4cnn(C)c4)cn4ncc(C#N)c34)cn2)CC1` [Example 460, 4-(6-(4-(2-(dimethylamino)benzyl)piperazin-1-yl)pyridin-3-yl)-6-(1-methyl-1H-pyrazol-4-yl)pyrazolo[1,5-a]pyridine-3-carbonitrile], 1780 nM. To `CN(C)c1ccc(CN2CCN(c3ccc(-c4cc(-c5cnn(C)c5)cn5ncc(C#N)c45)cn3)CC2)cc1` [Example 461, 4-(6-(4-(4-(dimethylamino)benzyl)piperazin-1-yl)pyridin-3-yl)-6-(1-methyl-1H-pyrazol-4-yl)pyrazolo[1,5-a]pyridine-3-carbonitrile] belongs 129 nM; to `Cn1cc(-c2cc(-c3ccc(N4CCN(Cc5ccc(F)cn5)CC4)nc3)c3c(C#N)cnn3c2)cn1` [Example 462, 4-(6-(4-((5-fluoropyridin-2-yl)methyl)piperazin-1-yl)pyridin-3-yl)-6-(1-methyl-1H-pyrazol-4-yl)pyrazolo[1,5-a]pyridine-3-carbonitrile], 804 nM. `Cn1cc(-c2cc(-c3ccc(N4CCN(CC5CCOCC5)CC4)nc3)c3c(C#N)cnn3c2)cn1` [Example 466, 6-(1-methyl-1H-pyrazol-4-yl)-4-(6-(4-((tetrahydro-2H-pyran-4-yl)methyl)piperazin-l-yl)pyridin-3-yl)pyrazolo[1,5-a]pyridine-3-carbonitrile] returned an IC50 of 2160 nM.

For the compound `Cc1nccc(CN2CCN(c3ccc(-c4cc(-c5cnn(C)c5)cn5ncc(C#N)c45)cn3)CC2)n1` [Example 467, 6-(1-methyl-1H-pyrazol-4-yl)-4-(6-(4-((2-methylpyrimidin-4-yl)methyl)piperazin-l-yl)pyridin-3-yl)pyrazolo[1,5-a]pyridine-3-carbonitrile], the 50% inhibitory concentration (IC50) came out at 1540 nM. On to `Cn1cc(-c2cc(-c3ccc(N4CCN(Cc5cccnc5)CC4)nc3)c3c(C#N)cnn3c2)cn1` [Example 471, 6-(1-methyl-1H-pyrazol-4-yl)-4-(6-(4-(pyridin-3-ylmethyl)piperazin-1-yl)pyridine-3-yl)pyrazolo[1,5-a]pyridine-3-carbonitrile], for which the IC50 was 1580 nM.
